Reference: patent US20250204515A1, “Heparanase Inhibition for Graft Protection” (University of Pittsburgh - Of the Commonwealth System of …, priority 2022, published 2025)
Entries after “also recorded” stand apart in the source; their conditions may differ.

Assays:
IL-6, IL-1β, MMP-9 mRNA = test: Real-time RT-PCR in lung grafts 2 h after transplantation; assay type: in vivo, rat; settings: for IL-1β mRNA expression / IL-6 mRNA expression: graft 2 h after reperfusion, vs control lung grafts; for MMP-9 mRNA expression: graft 2 h after transplantation, vs control
Description: Real-time RT PCR. Lung tissues were collected after EVLP or 2 h after transplantation. Total RNA was extracted from the graft using TRIzol reagent (Life Technologies, Inc. Grand Island, NY) according to the manufacturer's instructions and purified by ethanol precipitation. RNA content was measured using 260/280 nm UV spectrophotometry.

rat lungs = test: Ex vivo lung perfusion (EVLP) of donor-pretreated rat lungs; assay type: in vivo; settings: donor pre-treatment; for pulmonary vascular resistance (PVR) during EVLP: 3 h normothermic EVLP; for syndecan-1 concentration in EVLP perfusate: during EVLP, vs increasing levels in control; for Evans blue dye (EBD) penetration into lung parenchyma: last 30 min of EVLP, vs control
Description: Ex vivo lung perfusion in rats. EVLP was performed using a commercially available rodent EVLP system (IPL-2 Isolated Perfused Rat or Guinea Pig Lung System; Harvard Apparatus, Holliston, MA). After procurement, the lungs were kept under cold ischemia for 1 h, then placed on the EVLP system, ventilated with air warmed to 37′, and perfused with 100 ml STEEN solution (XVIVO Perfusion AB) that was deoxygenated with 6% O2, 8% CO2 and balanced N2 and supplemented with 50 mg of methylprednisolone (Solu-Medrol; Pfizer, Inc.) and 50 mg of cephalosporin (Cefazolin; West-Ward Pharmaceuticals Corp., Eatontown, NJ). […] Pulmonary artery pressure, peak airway pressure, and airway flow were monitored continuously, and lung compliance and PVR were calculated every hour.
Assessment of endothelial barrier function. After 3 h of EVLP, 6 mg of Evans blue dye (EBD, Millipore Sigma) was administered into the perfusate to assess vascular endothelial permeability. After 30 min of perfusion, the lung vascular bed was rinsed with 20 ml of PBS and pieces of lungs were incubated overnight in formamide (Millipore Sigma) at 60° C. Absorbance of the extractant was measured at 620 nm to quantitate the amount of EBD that had permeabilized into the tissue and was normalized to dry-tissue weight.
Determination of glycocalyx components in rat lung grafts. For rat lung tissue, syndecan-1 released into the perfusate during EVLP was measured with a rat-specific ELISA (Immunotag Rat SDC1 (Syndecan-1) ELISA, G-Biosciences, St. Louis, MO). Glycocalyx glycosaminoglycans (GAGs) were quantitated using the 1,9-dimethylmethylene blue (DMMB, Millipore Sigma) method with modifications. A 1 L solution of DMMB (pH˜3.0) was prepared by dissolving 16 mg DMMB in distilled H2O containing 3.04 g/A glycine, 1.6 g/A NaCl and 95 ml 0.1 M acetic acid. Briefly, 1 ml DMMB solution was added to 20 μl lung tissue lysate then incubated at room temperature for 1 h on a tube rotator. The tubes were then centrifuged at 14,000 rpm for 15 min at 4° C. Supernatants were carefully decanted, 200 μL sodium lauryl sulfate buffer (2.08 mM) was added to each pellet, and the tubes were vortexed until GAG-DMMB pellets were no longer visible. GAG content in each sample was measured spectrophotometrically at 656 nm.

heparanase = biological target: T1, heparanase (Rattus norvegicus, UniProt Q71RP1); test: Heparanase activity assay in rat lung tissue after 1 h warm ischemia; assay type: in vivo; settings: rat donors given heparin 300 IU or NAH 300 μg i.v. 5 min before 1 h warm ischemia; vs untreated control
T1 construct: isolated lung tissue lysate was applied to biotinylated heparan sulfate-coated wells; from tissue; host or cells: rat (Lewis) lung tissue lysate
T1 sequence (Q71RP1 29-536): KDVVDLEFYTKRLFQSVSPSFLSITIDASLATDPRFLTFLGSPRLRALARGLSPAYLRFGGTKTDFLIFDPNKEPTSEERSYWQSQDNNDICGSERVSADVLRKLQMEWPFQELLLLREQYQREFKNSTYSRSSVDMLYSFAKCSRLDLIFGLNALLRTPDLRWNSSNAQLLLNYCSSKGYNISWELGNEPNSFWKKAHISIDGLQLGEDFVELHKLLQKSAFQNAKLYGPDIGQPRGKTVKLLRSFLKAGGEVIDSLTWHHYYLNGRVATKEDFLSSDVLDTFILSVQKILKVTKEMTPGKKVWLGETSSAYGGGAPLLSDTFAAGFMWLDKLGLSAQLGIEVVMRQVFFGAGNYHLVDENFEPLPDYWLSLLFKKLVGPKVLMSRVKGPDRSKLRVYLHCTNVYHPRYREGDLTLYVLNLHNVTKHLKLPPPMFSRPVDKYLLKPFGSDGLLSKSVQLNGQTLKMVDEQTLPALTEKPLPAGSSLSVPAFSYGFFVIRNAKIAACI
Description: Models of lungs with damaged or preserved eGC and rat orthotopic left lung transplantation. Rats were sedated with 4% isoflurane via inhalation for tracheostomy and then placed on a ventilator. They received 5% isoflurane with 100% O2 via inhalation through the ventilator for 15 min to induce a deep state of anesthesia that causes arrest of spontaneous breathing. The rats were disconnected from the ventilator 5 min after intravenous administration of heparin (300 IU), a heparin derivative without anti-coagulant properties (300 μg; N-acetyl heparin (NAH) (Millipore Sigma, Burlington, MA)), or saline (300 μl, control) through the jugular vein. Cardiac activity and blood oxygen saturation were monitored after disconnection from ventilator until cardiac arrest. One hour after induction of ischemia, a median thoracotomy was performed, and blood was flushed from the lungs with cold, low potassium dextran solution (PERFADEX; XVIVO Perfusion AB) through the pulmonary artery. […]
Heparanase activity assay. Heparanase activity was measured using a heparanase assay kit (AMS Bio-technology (Europe) Ltd., Abingdon, UK) to quantitate heparan sulfate degradation according to the manufacturer's instructions. […] After incubation and washing, the remaining heparan sulfate was detected using a biotin-streptavidin-HRP system.

Row | Substance | IL-1β mRNA expression (IL-6, IL-1β, MMP-9 mRNA) | IL-6 mRNA expression (IL-6, IL-1β, MMP-9 mRNA) | MMP-9 mRNA expression (IL-6, IL-1β, MMP-9 mRNA) | pulmonary vascular resistance (PVR) during EVLP (rat lungs) | syndecan-1 concentration in EVLP perfusate (rat lungs) | Evans blue dye (EBD) penetration into lung parenchyma (rat lungs) | heparanase activity in lung tissue (heparanase)
1 | heparin | significantly lower | significantly lower | significantly lower | little to no increase | maintained at a constant level | significantly less EBD penetration | decreased; also recorded: inhibited
2 | N-acetyl heparin [NAH] | significantly lower | significantly lower | significantly lower | little to no increase | maintained at a constant level | significantly less EBD penetration | inhibited
